Assay: recombinant barcode read abundance after kanamycin selection (control-corrected) (log10(CPM+1)); higher = more efficient recombination; sequences stand for … in AGTGCAGAGAAAATCGGCCAGTTTTCTCTGCCTGCAGTCCGCATGCCGT…AGATTTATGCAGCGGACTGCCTTTCTCCCAAAGTGATAAACCGGACAGTATCATGGACCGGTTTTCCCGGTAATCCGTATTTGCAAGGTTGGTTTCACT; site = the 11-nt target
How it was run: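 This pooled E. coli screen matched targets with IS621 bridge RNA target-binding loops. Plating was done in duplicate on chloramphenicol/ampicillin LB agar as a control and on chloramphenicol/ampicillin/kanamycin plus 0.1 mM IPTG. Recombination efficiency reflects barcode counts at recombinant junctions as counts per million, averaged and control-corrected. The figures are log10(CPM+1).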
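Note: IS621 recombinase and bridge RNA in Escherichia coli cells.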

Sequence	recombinant barcode read abundance (log10)
GAGTACCCTTGGGTTCTAACCTGTTGCGT (site GAGTACCCTAC)	3.2
GAGTAGCCTTGGGTTCTAACCTGTTGCGG (site GAGTAGCCTCC)	2.59
GAGTAGCCTTGGGTTCTAACCTGTTGCGG (site GAGTCGCCTCC)	0.196
GAGTAGCCTTGGGTTCTAACCTGTTGCGG (site GAGTGGCCTCC)	0.3
GAGTAGCCTTGGGTTCTAACCTGTTGCGG (site GAGTTGCCTCC)	0.204
GAGTGTACTTGGGTTCTAACCTGTTGCAT (site GAGAGTACTAT)	0.208
GAGTGTACTTGGGTTCTAACCTGTTGCAT (site GAGCGTACTAT)	0.553
GAGTGTACTTGGGTTCTAACCTGTTGCAT (site GAGGGTACTAT)	0.029
GAGTGTACTTGGGTTCTAACCTGTTGCAT (site GAGTGTACTAT)	1.32
GAGTGTTCTTGGGTTCTAACCTGTTGCTT (site GAGTGTTCTAA)	0.277
GAGTGTTCTTGGGTTCTAACCTGTTGCTT (site TGTACGACTCC)	0.0677
GATAACTCTTGGGTTCTAACCTGTTGCCT (site AATAACTCTAG)	0.802
GATAACTCTTGGGTTCTAACCTGTTGCCT (site CATAACTCTAG)	0.329
GATAACTCTTGGGTTCTAACCTGTTGCCT (site GATAACTCTAG)	0.734
GATAACTCTTGGGTTCTAACCTGTTGCCT (site TATAACTCTAG)	0.315
GATACTGCTTGGGTTCTAACCTGTTGCCT (site GAAACTGCTAG)	0.0212
GATACTGCTTGGGTTCTAACCTGTTGCCT (site GACACTGCTAG)	0.434
GATACTGCTTGGGTTCTAACCTGTTGCCT (site GAGACTGCTAG)	0.0206
GATACTGCTTGGGTTCTAACCTGTTGCCT (site GATACTGCTAG)	0.504
GATAGGACTTGGGTTCTAACCTGTTGCGT (site GATAGGACTAC)	2.12
GATAGGACTTGGGTTCTAACCTGTTGCGT (site TATAGGACTAC)	2.03
GATAGGGCTTGGGTTCTAACCTGTTGCGG (site GATAGGGCTCC)	2.34

Sequence	recombinant barcode read abundance (log10)
GATAGGGCTTGGGTTCTAACCTGTTGCGG (site TATAGGGCTCG)	0.362
GATAGTGCTTGGGTTCTAACCTGTTGCCT (site GATAGTACTAG)	0.0881
GATAGTGCTTGGGTTCTAACCTGTTGCCT (site GATAGTCCTAG)	0.0622
GATAGTGCTTGGGTTCTAACCTGTTGCCT (site GATAGTGCTAG)	0.536
GATAGTGCTTGGGTTCTAACCTGTTGCCT (site GATAGTTCTAG)	0.0158
GATCAATCTTGGGTTCTAACCTGTTGCCT (site GAGCAAACTAG)	0.0249
GATCAATCTTGGGTTCTAACCTGTTGCCT (site GATCAATCTAG)	0.332
GATCGAGCTTGGGTTCTAACCTGTTGCGA (site GATCGAGCTTC)	0.921
GATCGAGCTTGGGTTCTAACCTGTTGCGA (site GATGGAGCTCC)	0.428
GATGGCCCTTGGGTTCTAACCTGTTGCTT (site GACGGACCTAA)	0.101
GATGGCCCTTGGGTTCTAACCTGTTGCTT (site GATGGCCCTAA)	0.528
GATGTAACTTGGGTTCTAACCTGTTGCCT (site GAAGTAACTAG)	0.191
GATGTAACTTGGGTTCTAACCTGTTGCCT (site GACGTAACTAG)	0.101
GATGTAACTTGGGTTCTAACCTGTTGCCT (site GAGGTAACTAG)	0.0797
GATGTAACTTGGGTTCTAACCTGTTGCCT (site GATGTAACTAG)	0.956
GATTCTACTTGGGTTCTAACCTGTTGCGT (site CATGCTACTAC)	0.0209
GATTCTACTTGGGTTCTAACCTGTTGCGT (site GATTCTACTAC)	0.0518
GATTCTCCTTGGGTTCTAACCTGTTGCGT (site GATTCTCCTAA)	0.0946
GATTCTCCTTGGGTTCTAACCTGTTGCGT (site GATTCTCCTAC)	0.541
GATTCTCCTTGGGTTCTAACCTGTTGCGT (site GATTCTCCTAG)	0.141
GATTCTCCTTGGGTTCTAACCTGTTGCGT (site GATTCTCCTAT)	0.118
GATTCTCCTTGGGTTCTAACCTGTTGCTT (site GATTCTCCTAA)	0.0943

Sequence	recombinant barcode read abundance (log10)
GATTCTCCTTGGGTTCTAACCTGTTGCTT (site GATTCTCCTAC)	0.0499
GATTCTCCTTGGGTTCTAACCTGTTGCTT (site GATTCTCCTAG)	0.0621
GATTCTCCTTGGGTTCTAACCTGTTGCTT (site GATTCTCCTAT)	0.194
GCAAATCCTTGGGTTCTAACCTGTTGCCT (site GCAAATCCTAG)	0.873
GCAAATCCTTGGGTTCTAACCTGTTGCCT (site GCACATCCTAC)	0.108
GCAACCTCTTGGGTTCTAACCTGTTGCTA (site CGCTGACCTAG)	0.049
GCAACCTCTTGGGTTCTAACCTGTTGCTA (site GCAACCTCTTA)	1.92
GCAAGTACTTGGGTTCTAACCTGTTGCAG (site AGGTTAGCTTA)	0.106
GCAAGTACTTGGGTTCTAACCTGTTGCAG (site GCAAGTACTCT)	1.95
GCACAGACTTGGGTTCTAACCTGTTGCCT (site GCAAAGCCTAG)	0.207
GCACAGACTTGGGTTCTAACCTGTTGCCT (site GCACAGACTAG)	2.09
GCACAGTCTTGGGTTCTAACCTGTTGCTT (site CCATAGTCTAA)	0.0514
GCACAGTCTTGGGTTCTAACCTGTTGCTT (site GCACAGTCTAA)	1.93
GCACGAACTTGGGTTCTAACCTGTTGCCT (site GCACGAACTAG)	1
GCACGAACTTGGGTTCTAACCTGTTGCCT (site GCCCGAACTAG)	0.133
GCACGAACTTGGGTTCTAACCTGTTGCCT (site GCGCGAACTAG)	0.0581
GCACGAACTTGGGTTCTAACCTGTTGCCT (site GCTCGAACTAG)	0.0171
GCACTACCTTGGGTTCTAACCTGTTGCCT (site GCACAACCTAG)	0.0611
GCACTACCTTGGGTTCTAACCTGTTGCCT (site GCACCACCTAG)	0.534
GCACTACCTTGGGTTCTAACCTGTTGCCT (site GCACGACCTAG)	0.166
GCACTACCTTGGGTTCTAACCTGTTGCCT (site GCACTACCTAG)	1.37
GCACTGCCTTGGGTTCTAACCTGTTGCCT (site GCACTGCCTAG)	1.31

Sequence	recombinant barcode read abundance (log10)
GCACTGCCTTGGGTTCTAACCTGTTGCCT (site GCCCTGCCTAG)	0.233
GCAGCGACTTGGGTTCTAACCTGTTGCCT (site GCAGCGACTAG)	1.78
GCAGCGACTTGGGTTCTAACCTGTTGCCT (site GCCGCGACTAG)	0.148
GCAGCGACTTGGGTTCTAACCTGTTGCCT (site GCGGCGACTAG)	0.277
GCAGCGACTTGGGTTCTAACCTGTTGCCT (site GCTGCGACTAG)	0.194
GCAGGGTCTTGGGTTCTAACCTGTTGCTT (site GCAGGGTCTAA)	2.4
GCAGGGTCTTGGGTTCTAACCTGTTGCTT (site GCCGGGTCTAA)	0.658
GCAGGGTCTTGGGTTCTAACCTGTTGCTT (site GCGGGGTCTAA)	0.646
GCAGGGTCTTGGGTTCTAACCTGTTGCTT (site GCTGGGTCTAA)	0.355
GCAGGTCCTTGGGTTCTAACCTGTTGCCT (site GCAGGTCCTAG)	0.788
GCAGGTCCTTGGGTTCTAACCTGTTGCCT (site GCCGGTCCTAG)	0.512
GCAGGTCCTTGGGTTCTAACCTGTTGCCT (site GCGGGTCCTAG)	0.744
GCAGGTCCTTGGGTTCTAACCTGTTGCCT (site GCTGGTCCTAG)	0.397
GCAGTAGCTTGGGTTCTAACCTGTTGCCA (site CCGGTAGCTTG)	0.188
GCAGTAGCTTGGGTTCTAACCTGTTGCCA (site GCAGTAGCTTG)	0.382
GCATATACTTGGGTTCTAACCTGTTGCGT (site AGTCCCGCTTG)	0
GCATATACTTGGGTTCTAACCTGTTGCGT (site GCATATACTAC)	2.15
GCATCGGCTTGGGTTCTAACCTGTTGCCT (site GCATCGGCTAG)	1.22
GCATCGGCTTGGGTTCTAACCTGTTGCCT (site GCCTCGGCTAG)	0.0153
GCATCGGCTTGGGTTCTAACCTGTTGCCT (site GCGTCGGCTAG)	0.0974

Reference: the supplement of paper PMC11208160
